Assay results from ChEMBL document CHEMBL6092135, “Current development and structure-activity relationship study of berberine derivatives” (Bioorg Med Chem, 2024).

Experiments:
Listeria monocytogenes = assay: Antibacterial activity against Listeria monocytogenes ATCC 19111 assessed as reduction in bacterial growth incubated for 20 to 24 hrs by microbroth serial dilution assay; type: functional; details: time 20-24 hrs
Candida albicans [1] = assay: Antifungal activity against Candida albicans assessed as reduction in fungal growth incubated for 12 hrs by microdilution method; type: functional
HeLa [2] = assay: Anticancer activity against human HeLa cells; type: functional, cell-based
A549 [3] = assay: Anticancer activity against human A549 cells; type: functional, cell-based
HeLa [4] = assay: Cytotoxicity against human HeLa cells assessed as reduction in cell viability measured after 48 hrs by SRB assay; type: functional, cell-based
[5] = Antioxidant activity assessed as DPPH radical scavenging activity measured for 30 mins by spectrophotometric analysis; type: functional
Ca-Ski = assay: Cytotoxicity against human Ca-Ski cells assessed as reduction in cell viability measured after 48 hrs by SRB assay; type: functional, cell-based
Salmonella typhimurium = assay: Antimicrobial activity against Salmonella enterica subsp. enterica serovar Typhimurium LT2 assessed as inhibition of bacterial growth measured for 24 hrs by broth micro-dilution method; type: functional
DNA topoisomerase 1 = DNA topoisomerase 1 (Homo sapiens, UniProt P11387); assay: Inhibition of Topoisomerase 1 (unknown origin)
Aspergillus niger = assay: Antifungal activity against Aspergillus niger assessed as inhibition of fungal growth incubated for 48 hrs by CLSI protocol based analysis; type: functional
Cryptococcus neoformans = assay: Antifungal activity against Cryptococcus neoformans assessed as fungal growth inhibition by CLSI based method; type: functional
Coxsackievirus B3 = assay: Antiviral activity against Coxsackievirus B3 infected in human HEp-2 cells assessed as inhibition of virus-induced cytopathic effect measured after 48 hrs by MTT assay; type: functional, organism-based; details: Enterovirus B, HEp-2, 48 h
Plasmodium falciparum = assay: Antiplasmodial activity against Plasmodium falciparum 3D7 assessed as inhibition of parasite growth measured for 42 hrs by SYBR Green staining based fluorescence analysis; type: functional, organism-based; details: 3D7, 42 h
Staphylococcus aureus [6] = assay: Antibacterial activity against Staphylococcus aureus ATCC 25923 assessed as reduction in bacterial growth incubated for 24 hrs by serial dilution method; type: functional
Bacillus anthracis = assay: Antibacterial activity against Bacillus anthracis; type: functional
Bacillus cereus = assay: Antibacterial activity against Bacillus cereus ATCC 27348 assessed as inhibition of bacterial growth incubated for 18 hrs by microdilution method; type: functional
Enterococcus faecium = assay: Antibacterial activity against Enterococcus faecium ATCC 19434 assessed as reduction in microbial growth measured after 24 hrs by two-fold serial dilution method; type: functional
Enterococcus faecalis = assay: Antibacterial activity against Enterococcus faecalis ATCC 29212 assessed as reduction in microbial growth after 16 hrs by broth microdilution method; type: functional
Escherichia coli = assay: Antibacterial activity against Escherichia coli ATCC 25922 assessed as bacterial growth inhibition measured after 48 hrs by resazurin assay; type: functional
[7] = tested on: Mycobacterium tuberculosis; assay: Antimycobacterial activity against Mycobacterium tuberculosis H37Rv assessed as reduction in bacterial growth incubated for 7 days by resazurin based assay; type: functional; details: 168 h, time 7 day
CCRF-CEM = assay: Antiproliferative activity against human CEM cells assessed as reduction in cell viability measured after 3 to 4 days by MTT assay; type: functional, cell-based
Staphylococcus aureus [8] = assay: Antibacterial activity against Staphylococcus aureus ATCC 25923 assessed as reduction in microbial growth measured after 24 hrs by spectrophotometric method; type: functional
Enterovirus A71 = assay: Antiviral activity against human EV71 infected in human RD cells assessed as inhibition of cytopathic effect by microscopy based analysis; type: functional, organism-based; details: Enterovirus A
A549 [9] = assay: Antiproliferative activity against human A549 cells assessed as reduction in cell viability incubated for 24 hrs by CCK-8 assay; type: functional, cell-based; details: A549, 24 h
HCT-116 = assay: Cytotoxicity against human HCT-116 cells assessed as reduction in cell viability incubated for 24 hrs by MTT assay; type: functional, cell-based; details: HCT-116, 24 h
BFTC-905 = assay: Antiproliferative activity against human BFTC-905 cells assessed as reduction in cell viability; type: functional, cell-based
C6 = assay: Antiproliferative activity against rat C6 cells assessed as inhibition of cell growth incubated for 72 hrs by Sulforhodamine B assay; type: functional, cell-based; details: C6, 72 h
HepG2 [10] = assay: Cytotoxicity against human HepG2 cells assessed as reduction in cell viability by MTT assay; type: functional, cell-based
HT-29 = assay: Antiproliferative activity against human HT-29 cells assessed as reduction in cell viability incubated for 24 hrs by MTT assay; type: functional, cell-based; details: HT-29, 24 h
Candida albicans [11] = assay: Antifungal activity against Candida albicans ATCC 10231 assessed as reduction in fungal growth by NCCLS method; type: functional
HepG2 [12] = assay: Antiproliferative activity against human HepG2 cells assessed as reduction in cell growth; type: functional, cell-based
[13] = Antiproliferative activity against human QGY-7701 cells assessed as reduction in cell growth; type: functional, cell-based; details: QGY7701
CEM-VCR = assay: Antiproliferative activity against human CEM-VCR cells assessed as reduction in cell growth; type: functional, cell-based
SMMC-7721 = assay: Antiproliferative activity against human SMMC-7721 cells assessed as reduction in cell growth; type: functional, cell-based
[14] = tested on: Lewis lung carcinoma cell line; assay: Cytotoxicity against mouse Lewis lung carcinoma cell line; type: functional, cell-based

Sequence of DNA topoisomerase 1 (P11387 whole entry): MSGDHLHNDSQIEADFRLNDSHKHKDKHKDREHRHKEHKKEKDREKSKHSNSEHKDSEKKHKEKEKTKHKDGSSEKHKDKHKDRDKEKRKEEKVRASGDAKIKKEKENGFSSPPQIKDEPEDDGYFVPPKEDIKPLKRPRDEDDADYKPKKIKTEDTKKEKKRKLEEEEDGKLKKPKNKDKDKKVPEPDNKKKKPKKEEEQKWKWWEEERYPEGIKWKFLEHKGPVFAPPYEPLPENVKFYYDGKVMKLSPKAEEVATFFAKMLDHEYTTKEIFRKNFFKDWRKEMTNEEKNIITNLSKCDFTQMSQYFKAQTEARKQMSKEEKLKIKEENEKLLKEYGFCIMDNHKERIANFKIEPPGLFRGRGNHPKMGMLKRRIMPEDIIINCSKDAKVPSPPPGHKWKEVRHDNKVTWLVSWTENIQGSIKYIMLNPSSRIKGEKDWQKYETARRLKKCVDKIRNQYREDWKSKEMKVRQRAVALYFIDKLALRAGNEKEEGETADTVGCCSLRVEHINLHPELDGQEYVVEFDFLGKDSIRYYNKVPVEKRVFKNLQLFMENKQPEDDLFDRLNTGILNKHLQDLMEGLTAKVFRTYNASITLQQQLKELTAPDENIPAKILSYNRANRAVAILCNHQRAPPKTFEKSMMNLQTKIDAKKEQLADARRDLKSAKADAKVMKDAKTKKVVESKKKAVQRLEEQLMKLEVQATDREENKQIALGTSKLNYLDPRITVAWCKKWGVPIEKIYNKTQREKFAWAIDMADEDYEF

COc1cc(CN2CCN(c3ccccc3Cl)CC2)c2cc3[n+](cc2c1O)CCc1cc2c(cc1-3)OCO2.[Cl-]
MIC (Listeria monocytogenes): 200 µg/mL

COc1ccc2c(Cc3ccc(C(C)C)cc3)c3[n+](cc2c1O)CCc1cc2c(cc1-3)OCO2.[Cl-]
MIC (Candida albicans [1]): 1 µg/mL

COc1ccc2cc3[n+](cc2c1OCCn1nc(C)cc1C)CCc1cc2c(cc1-3)OCO2
IC50 (HeLa [2]): 8.99 µM | IC50 (A549 [3]): 8.99 µM

COc1cc(CN2CCN(c3cccc(Cl)c3Cl)CC2)c2cc3[n+](cc2c1O)CCc1cc2c(cc1-3)OCO2
IC50 (HeLa [4]): 7.33 µM | IC50 [5]: 19.8 µM | IC50 (Ca-Ski): 5.75 µM

COc1cc(Cn2ccnc2)c2cc3[n+](cc2c1O)CCc1cc2c(cc1-3)OCO2.[Cl-]
MIC (Salmonella typhimurium): 1 µg/mL

N=C(N)c1ccc(-c2ccc(-c3ccc(C(=N)N)cc3)o2)cc1 [FURAMIDINE]
IC50 (DNA topoisomerase 1): 1.2 µM

COc1ccc2c(c1OS(=O)(=O)c1c(F)c(F)cc(F)c1F)CN1CCc3cc4c(cc3C1C2)OCO4 (stereo unspecified)
IC50 (DNA topoisomerase 1): 1.05 µM

CCCCOc1c(OC)ccc2c(Cc3ccc(C(C)C)cc3)c3[n+](cc12)CCc1cc2c(cc1-3)OCO2.[Cl-]
MIC (Aspergillus niger): 0.25 µg/mL | MIC (Cryptococcus neoformans): 0.25 µg/mL

COc1ccc2cc3[n+](cc2c1)CCc1cc(OCCOCCN)c(OC)cc1-3
IC50 (Coxsackievirus B3): 3.08 µM

COc1ccc2cc3[n+](cc2c1OCCn1cccn1)CCc1cc2c(cc1-3)OCO2
IC50 (HeLa [2]): 8.99 µM | IC50 (A549 [3]): 8.99 µM

COc1ccc2cc3[n+](cc2c1OCc1cn(-c2ccc(S(=O)(=O)Nc4ccc(F)cc4)cc2)nn1)CCc1cc2c(cc1-3)OCO2.[Cl-]
IC50 (Plasmodium falciparum): 0.2 µg/mL

Br.COc1ccc2c(Cc3ccccc3-c3cc4cc([N+](=O)[O-])ccc4[nH]3)c3[n+](cc2c1OC)CCc1cc2c(cc1-3)OCO2
MIC (Staphylococcus aureus [6]): 3.12 µg/mL | MIC (Bacillus anthracis): 3.12 µg/mL | MIC (Bacillus cereus): 3.12 µg/mL | MIC (Enterococcus faecium): 3.12 µg/mL | MIC (Enterococcus faecalis): 3.12 µg/mL

COc1ccc2c(c1NS(=O)(=O)c1ccc(Cl)cc1)C[N+]1(S(=O)(=O)c3ccc(Cl)cc3)CCc3cc4c(cc3C1C2)OCO4 (stereo unspecified)
MIC (Escherichia coli): 0.5 µg/mL

COc1cc(CN2CCN(c3ccc(C)cc3C)CC2)c2cc3[n+](cc2c1O)CCc1cc2c(cc1-3)OCO2
IC50 (HeLa [4]): 7.33 µM | IC50 [5]: 19.8 µM | IC50 (Ca-Ski): 5.75 µM

COc1cc2c(cc1OC)C(c1ccccc1)N1CCc3cc4c(cc3C1=C2)OCO4.Cl (stereo unspecified)
MIC [7]: 1 µg/mL

COc1cc(CN2CCN(c3cccc(F)c3F)CC2)c2cc3[n+](cc2c1O)CCc1cc2c(cc1-3)OCO2
IC50 (HeLa [4]): 7.33 µM | IC50 [5]: 19.8 µM | IC50 (Ca-Ski): 5.75 µM

COc1cc(CN2CCN(c3ccc(F)cc3F)CC2)c2cc3[n+](cc2c1O)CCc1cc2c(cc1-3)OCO2
IC50 (HeLa [4]): 7.33 µM | IC50 [5]: 19.8 µM | IC50 (Ca-Ski): 5.75 µM

COc1ccc2cc3[n+](cc2c1OCc1cn(-c2ccc(S(=O)(=O)N4CCOCC4)cc2)nn1)CCc1cc2c(cc1-3)OCO2.[Cl-]
IC50 (Plasmodium falciparum): 0.2 µg/mL

COc1ccc2c(CCCc3ccccc3)c3[n+](cc2c1OC)CCc1cc2c(cc1-3)OCO2
IC50 (CCRF-CEM): 0.21 µM

COc1ccc2cc3[n+](cc2c1OC)CCc1cc2c(cc1-3)OCO2 [BERBERINE]
IC50 (HeLa [4]): 13.4 µM | IC50 [5]: 89.2 µM | MIC (Staphylococcus aureus [8]): 0.698 µg/mL | IC50 (Ca-Ski): 15.2 µM

COc1ccc2cc3[n+](cc2c1OCC(=O)OCc1ccccc1)CCc1cc2c(cc1-3)OCO2
IC50 (Enterovirus A71): 7.12 µM

COc1ccc2cc3[n+](cc2c1OCc1cn(-c2ccc(S(=O)(=O)Nc4ccc(Cl)cc4)cc2)nn1)CCc1cc2c(cc1-3)OCO2.[Cl-]
IC50 (Plasmodium falciparum): 0.2 µg/mL

COc1cc(CN2CCN(c3ccc(Cl)cc3Cl)CC2)c2cc3[n+](cc2c1O)CCc1cc2c(cc1-3)OCO2
IC50 (HeLa [4]): 7.33 µM | IC50 [5]: 19.8 µM | IC50 (Ca-Ski): 5.75 µM

CCCCCCN(CCCCCC)c1cc(OC)c(O)c2c[n+]3c(cc12)-c1cc2c(cc1CC3)OCO2
IC50 (A549 [9]): 0.29 µM

COc1ccc2cc3[n+](cc2c1OCCn1nc(C)c(Br)c1C)CCc1cc2c(cc1-3)OCO2
IC50 (HeLa [2]): 8.99 µM | IC50 (A549 [3]): 8.99 µM

CCCCCOC(=O)COc1c(OC)ccc2cc3[n+](cc12)CCc1cc2c(cc1-3)OCO2
IC50 (Enterovirus A71): 7.12 µM

COc1cc(CN2CCN(C(c3ccccc3)c3ccccc3)CC2)c2cc3[n+](cc2c1O)CCc1cc2c(cc1-3)OCO2.[Cl-]
MIC (Listeria monocytogenes): 200 µg/mL

COc1cc(CN2CCN(c3cccc(C)c3C)CC2)c2cc3[n+](cc2c1O)CCc1cc2c(cc1-3)OCO2
IC50 (HeLa [4]): 7.33 µM | IC50 [5]: 19.8 µM | IC50 (Ca-Ski): 5.75 µM

COc1cc(CN2CCN(c3ccc(Cl)c(Cl)c3)CC2)c2cc3[n+](cc2c1O)CCc1cc2c(cc1-3)OCO2
IC50 (HeLa [4]): 7.33 µM | IC50 [5]: 19.8 µM | IC50 (Ca-Ski): 5.75 µM

COc1ccc2c(c[n+]3c4c2ccc2c5c(cc(c24)CC3)OCO5)c1OC(=O)c1ccccc1
IC50 (HCT-116): 0.47 µM

CCCCCCCCCCCCc1c2[n+](cc3c(OC)c(OC)ccc13)CCc1cc3c(cc1-2)OCO3
IC50 (BFTC-905): 0.77 µM | IC50 (C6): 0.77 µM | IC50 (HepG2 [10]): 0.77 µM | IC50 (HT-29): 0.77 µM

COc1ccc2c(Cc3ccc(C(C)(C)C)cc3)c3[n+](cc2c1OC)CCc1cc2c(cc1-3)OCO2
MIC (Candida albicans [11]): 1.56 µg/mL

CCCCCCC1c2cc(OC)c(OC)cc2C=C2c3cc4c(cc3CCN21)OCO4.Cl (stereo unspecified)
MIC [7]: 1 µg/mL

COc1ccc(N2CCN(Cc3cc(OC)c(O)c4c[n+]5c(cc34)-c3cc4c(cc3CC5)OCO4)CC2)c(OC)c1
IC50 (HeLa [4]): 7.33 µM | IC50 [5]: 19.8 µM | IC50 (Ca-Ski): 5.75 µM

CCn1cc(C(=O)O)c(=O)c2cc(F)c(N3CCNCC3)cc21 [NORFLOXACIN]
MIC (Staphylococcus aureus [8]): 0.025 µg/mL

CCOC(=O)COc1c(OC)ccc2cc3[n+](cc12)CCc1cc2c(cc1-3)OCO2
IC50 (Enterovirus A71): 7.12 µM

CCCOc1c(OC)cc(/C=C2\SC(=O)NC2=O)c2c1CN1CCc3cc4c(cc3C1C2)OCO4 (stereo unspecified)
MIC (Staphylococcus aureus [8]): 0.008 µg/mL

CCCCCCCCc1c2[n+](cc3c(OC)c(OC)ccc13)CCc1cc3c(cc1-2)OCO3
IC50 (HepG2 [12]): 0.02 µM | IC50 [13]: 0.02 µM | IC50 (CEM-VCR): 0.02 µM | IC50 (SMMC-7721): 0.02 µM | IC50 [14]: 0.02 µM

O=C1O[C@H]([C@@H](O)CO)C(O)=C1O [ASCORBIC ACID]
IC50 [5]: 61 µM

COc1ccc2cc3[n+](cc2c1OCCn1nc(C)c(Cl)c1C)CCc1cc2c(cc1-3)OCO2
IC50 (HeLa [2]): 8.99 µM | IC50 (A549 [3]): 8.99 µM

COc1ccc2cc3[n+](cc2c1OCc1cn(-c2ccc(S(N)(=O)=O)cc2)nn1)CCc1cc2c(cc1-3)OCO2.[Cl-]
IC50 (Plasmodium falciparum): 0.2 µg/mL
